Reference: patent publication US20250228950A1 (priority 2017, published 2025)

Assays:
[1] = system: MDA-MB-231 breast cancer cells; assay: MDA-MB-231 cell growth inhibition / cytotoxicity assay, incl. pH 6.2 vs pH 7.4; details: for pH-dependent cytotoxicity / cell growth inhibitory activity: MDA-MB-231 cells; for pH-dependent cytotoxicity: pH 6.2 over pH 7.4; for cell growth inhibitory activity: FIG. 3 legend; for IC50: Homo sapiens
EMT-6 cells = assay: EMT-6 cytotoxicity at pH 6.2 vs pH 7.4; type: cell-based

O=C(Nc1ccc(N(CCCl)CCCl)cc1)OCCSSCCCc1c(F)c(F)c(O)c(F)c1F [YU252353]
pH-dependent cytotoxicity [1]: preferential cytotoxicity in acidic conditions | IC50 (EMT-6 cells; Mus musculus, EMT6, tumor pH 6.2): 28.7 µM | toxicity in this assay (EMT-6 cells; normal physiological pH 7.4): no detectable toxicity

O=P1(N(CCCl)CCCl)NCCCO1 (centres unmarked) [Cyclophosphamide, reference compound]
cell growth inhibitory activity [1]: remains inactive

NP(=O)(OCCSSCCCc1c(F)c(F)c(O)c(F)c1F)N(CCCl)CCCl (centres unmarked) [YU252213]
IC50 ([1]; MDA-MB-231, pH 6.2): 41.4 µM | IC50 ([1]; MDA-MB-231, pH 7.4): > 100 µM | cell growth inhibitory activity [1]: shows cell growth inhibitory activity | pH-dependent cytotoxicity [1]: preferential cytotoxicity in acidic conditions
